According to patent US7511145B2 (Genelabs Technologies, Inc., priority 2003, dated 2009):

Target: T1, HCV-NS5b (Hepatitis C virus genotype 1b, UniProt Q9WMX2)
T1 construct: (His)6 (C); made in house; host or cells: XL-1 cells (E. coli), IPTG-inducible plasmid, nickel-NTA purification
Test: HCV-NS5b enzyme assay (incorporation of radiolabeled UTP)
Format: biochemical
Settings: for inhibition at 33 µM: enzyme inhibition at compound concentration of 33 uM; for inhibition at 100 µM: read-out: % inh@100, enzyme inhibition at compound concentration of 100 uM
Outline: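 His6-tagged NS5b lacking the C-terminal 21 residues, expressed in XL-1 and Ni-NTA purified. Reaction at pH 7.5 with 5 mM MgCl2, 10 μM each NTP including [3H]-UTP and biotinylated HCV heteropolymeric template, 2 h at 37° C; SPA read-out; % inhibition at 100 and 33 uM versus no-compound control, background subtracted.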

Compound	inhibition at 33 µM	inhibition at 100 µM
O=C(O)c1ccc2c(c1)nc(-c1ccc3nc(-c4ccc[nH]4)ccc3c1)n2C1CCCCC1 [Compound 450, 1-Cyclohexyl-2-[2-(1H-pyrrol-2-yl)-quinolin-6-yl]-1H-benzoimidazole-5-carboxylic acid]	96.5%	99.7%
O=C(O)c1ccc2c(c1)nc(-c1ccc3nc(-c4ccccc4)cc(NCCCn4ccnc4)c3c1)n2C1CCCCC1 [Compound 451, 1-cyclohexyl-2-[4-(3-imidazol-1-yl-propylamino)-2-phenyl-quinolin-6-yl]-1H-benzoimidazole-5-carboxylic acid]	76.3%	95.6%
COc1cc(O)c(-c2ccc3cc(-c4nc5cc(C(=O)O)ccc5n4C4CCCCC4)ccc3n2)c(OC)c1 [Compound 452, 1-cyclohexyl-2-[2-(2-hydroxy-4,6-dimethoxy-phenyl)-quinolin-6-yl]-1H-benzoimidazole-5-carboxylic acid]	102%	102%
COc1ccc(-c2ccco2)c(-c2ccc3cc(-c4nc5cc(C(=O)O)ccc5n4C4CCCCC4)ccc3n2)c1 [Compound 454, 1-cyclohexyl-2-[2-(2-furan-2-yl-5-methoxy-phenyl)-quinolin-6-yl]-1H-benzoimidazole-5-carboxylic acid]	98.3%	101%
COc1ccc(-c2ccc(F)cc2)c(-c2ccc3cc(-c4nc5cc(C(=O)O)ccc5n4C4CCCCC4)ccc3n2)c1 [Compound 455, 1-Cyclohexyl-2-[2-(4′-fluoro-4-methoxy-biphen-2-yl)-quinolin-6-yl]-1H-benzoimidazole-5-carboxylic acid]	100%	99.8%
CCOc1ccc(-c2ccc(OC)cc2-c2ccc3cc(-c4nc5cc(C(=O)O)ccc5n4C4CCCCC4)ccc3n2)cc1 [Compound 456, 1-cyclohexyl-2-[2-(4′-ethoxy-4-methoxy-biphen-2-yl)-quinolin-6-yl]-1H-benzoimidazole-5-carboxylic acid]	100%	99.7%
O=C(O)c1ccc2c(c1)nc(-c1ccc3nc(C(c4ccccc4)c4ccccc4)ccc3c1)n2C1CCCCC1 [Compound 457, 2-(2-benzhydryl-quinolin-6-yl)-1-cyclohexyl-1H-benzoimidazole-5-carboxylic acid]	98.2%	98.3%
CN(C)c1ccc(-c2nc3ccc(-c4nc5cc(C(=O)O)ccc5n4C4CCCCC4)cc3nc2-c2ccc(N(C)C)cc2)cc1 [Compound 458, 2-[2,3-Bis-(4-dimethylaminotphenyl)quinoxalin-6-yl]-1-cyclohexyl-1H-benzimidazole-5-carboxylic acid]	100%	104%
O=C(O)c1ccc2c(c1)nc(-c1ccc3nc(-c4ccc5c(c4)CCCC5)ccc3c1)n2C1CCCCC1 [Compound 459, 1-cyclohexyl-2-[2-(5,6,7,8-tetrahydro-naphthalen-2-yl)-quinolin-6-yl]-1H-benzoimidazole-5-carboxylic acid]	99.5%	99.8%
O=C(O)c1ccc2c(c1)nc(-c1ccc3nc(-c4c(O)ccc5ccccc45)ccc3c1)n2C1CCCCC1 [Compound 460, 1-cyclohexyl-2-[2-(2-hydroxy-naphthalen-1-yl)-quinolin-6-yl]-1H-benzoimidazole-5-carboxylic acid]	101%	102%
COCCOc1ccc(-c2ccccc2)c(-c2ccc3cc(-c4nc5cc(C(=O)O)ccc5n4C4CCCCC4)ccc3n2)c1 [Compound 461, 1-Cyclohexyl-2-{2-[4-(2-methoxy-ethoxy)-biphen-2-yl]-quinolin-6-yl}-1H-benzoimidazole-5-carboxylic acid]	97.9%	96.7%
Cc1c(OCc2ccccc2)ccc(-c2ccc3cc(-c4nc5cc(C(=O)O)ccc5n4C4CCCCC4)ccc3n2)c1O [Compound 462, 2-[2-(4-benzyloxy-2-hydroxy-3-methyl-phenyl)-quinolin-6-yl]-1-cyclohexyl-1H-benzoimidazole-5-carboxylic acid]	98.2%	101%
Cn1c2ccc(Cl)cc2c2cc(-c3ccc4cc(-c5nc6cc(C(=O)O)ccc6n5C5CCCCC5)ccc4n3)ccc21 [Compound 463, 2-[2-(6-chloro-9-methyl-9H-carbazol-3-yl)-quinolin-6-yl]-1-cyclohexyl-1H-benzoimidazole-5-carboxylic acid]	96%	97.2%
Cc1nn(-c2ccccc2)c(C)c1-c1ccc2cc(-c3nc4cc(C(=O)O)ccc4n3C3CCCCC3)ccc2n1 [Compound 464, 1-cyclohexyl-2-[2-(3,5-dimethyl-1-phenyl-1H-pyrazol-4-yl)-quinolin-6-yl]-1H-benzoimidazole-5-carboxylic acid]	99.7%	100%
O=C1COc2ccc(-c3ccc4cc(-c5nc6cc(C(=O)O)ccc6n5C5CCCCC5)ccc4n3)cc2N1 [Compound 465, 1-cyclohexyl-2-[2-(3-oxo-3,4-dihydro-2H-benzo[1,4]oxazin-6-yl)-quinolin-6-yl]-1H-benzoimidazole-5-carboxylic acid]	98.8%	101%
NNc1cc(-c2ccccc2)nc2ccc(-c3nc4cc(C(=O)O)ccc4n3C3CCCCC3)cc12 [Compound 466, 1-Cyclohexyl-2-(4-hydrazino-2-phenyl-quinolin-6-yl)-1H-benzoimidazole-5-carboxylic acid]	92.9%	100%
O=C(O)c1ccc2c(c1)nc(-c1ccc3nc(-c4ccccc4)cc(Sc4ccccc4)c3c1)n2C1CCCCC1 [Compound 467, 1-Cyclohexyl-2-(2-phenyl-4-phenylsulfanyl-quinolin-6-yl)-1H-benzoimidazole-5-carboxylic acid]	96.3%	100%
COc1ccc(-c2ccc(OC)cc2-c2ccc3cc(-c4nc5cc(C(=O)O)ccc5n4C4CCCCC4)ccc3n2)cc1 [Compound 468, 1-cyclohexyl-2-[2-(4,4′-dimethoxy-biphen-2-yl)-quinolin-6-yl]-1H-benzoimidazole-5-carboxylic acid]	99.3%	99.1%
COc1ccc(-c2ccc(O)cc2)c(-c2ccc3cc(-c4nc5cc(C(=O)O)ccc5n4C4CCCCC4)ccc3n2)c1 [Compound 469, 1-cyclohexyl-2-[2-(4′-hydroxy-4-methoxy-biphen-2-yl)-quinolin-6-yl]-1H-benzoimidazole-5-carboxylic acid]	94.2%	98.2%
COc1ccc(-c2cccs2)c(-c2ccc3cc(-c4nc5cc(C(=O)O)ccc5n4C4CCCCC4)ccc3n2)c1 [Compound 470, 1-cyclohexyl-2-[2-(5-methoxy-2-thiophen-2-yl-phenyl)-quinolin-6-yl]-1H-benzoimidazole-5-carboxylic acid]	101%	99.4%
Cc1cc(-c2ccccc2Br)nc2ccc(-c3nc4cc(C(=O)O)ccc4n3C3CCCCC3)cc12 [Compound 471, 2-[2-(2-Bromo-phenyl)-4-methyl-quinolin-6-yl]-1-cyclohexyl-1H-benzoimidazole-5-carboxylic acid]	97.8%	99.8%
Cc1cc(-c2ccc3cc(-c4nc5cc(C(=O)O)ccc5n4C4CCCCC4)ccc3n2)c(-c2ccccc2)s1 [Compound 472, 1-cyclohexyl-2-[2-(5-methyl-2-phenyl-thiophen-3-yl)-quinolin-6-yl]-1H-benzoimidazole-5-carboxylic acid]	97.1%	98.1%
O=C(O)c1ccc2c(c1)nc(-c1ccc3nc(-c4ccc(-n5ccnc5)cc4)ccc3c1)n2C1CCCCC1 [Compound 473, 1-cyclohexyl-2-[2-(4-imidazol-1-yl-phenyl)-quinolin-6-yl]-1H-benzoimidazole-5-carboxylic acid]	99.2%	97.4%
O=C(O)c1ccc2c(c1)nc(-c1ccc3nc(-c4cccc(O)c4)ccc3c1)n2C1CCCCC1 [Compound 474, 1-Cyclohexyl-2-[2-(3-hydroxy-phenyl)-quinolin-6-yl]-1H-benzoimidazole-5-carboxylic acid]	97%	101%
COCCOc1ccc(-c2ccc(Cl)cc2)c(-c2ccc3cc(-c4nc5cc(C(=O)O)ccc5n4C4CCCCC4)ccc3n2)c1 [Compound 475, 2-{2-[4′-Chloro-4-(2-methoxy-ethoxy)-biphen-2-yl]-quinolin-6-yl}-1-cyclohexyl-1H-benzoimidazole-5-carboxylic acid]	97.5%	95.9%
O=C(O)c1ccc2c(c1)nc(-c1ccc3nc(CCn4cccn4)ccc3c1)n2C1CCCCC1 [Compound 476, 1-cyclohexyl-2-[2-(2-pyrazol-1-yl-ethyl)-quinolin-6-yl]-1H-benzoimidazole-5-carboxylic acid]	97.3%	97.1%
O=C(O)c1cnc2c(c1)nc(-c1ccc3nc(-c4ccccc4Br)ccc3c1)n2C1CCCCC1 [Compound 477, 2-[2-(2-bromo-phenyl)-quinolin-6-yl]-3-cyclohexyl-3H-imidazo[4,5-b]pyridine-6-carboxylic acid]	92.4%	95.9%
O=C(O)c1ccc2c(c1)nc(-c1ccc3nc(-c4ccc5c(c4)CCO5)ccc3c1)n2C1CCCCC1 [Compound 478, 1-cyclohexyl-2-[2-(2,3-dihydro-benzofuran-5-yl)-quinolin-6-yl]-1H-benzoimidazole-5-carboxylic acid]	95.8%	97.2%
O=C(O)c1ccc2c(c1)nc(-c1ccc3nc(-c4cc(-c5ccc(Cl)c(Cl)c5)no4)ccc3c1)n2C1CCCCC1 [Compound 479, 1-cyclohexyl-2-{2-[3-(3,4-dichloro-phenyl)-isoxazol-5-yl]-quinolin-6-yl}-1H-benzoimidazole-5-carboxylic acid]	99.6%	102%
